In ChEMBL document CHEMBL1157707, “Lead optimization of N-3-substituted 7-morpholinotriazolopyrimidines as dual phosphoinositide 3-kinase/mammalian target of rapamycin inhibitors: discovery of PKI-402” (J Med Chem, 2010):
In brackets after ≈: the same amount, converted by molar mass. Activity calls are given as the source filed them. No cut-off for these calls is given here.

Tests used:
[1] = target: Serine/threonine-protein kinase mTOR (Homo sapiens, UniProt P42345); test: Inhibition of mTOR by DELFIA
in vitro = settings: rat
MDA-MB-361 = test: cells; settings: Homo sapiens, MDA-MB-361, 72 h
PC-3 = test: cells; settings: Homo sapiens, PC-3, 72 h
[2] = Solubility at pH 7.4; format: physicochemical; settings: buffer
[3] = Metabolic stability in mouse liver microsomes assessed as half life; format: ADME, Microsome
[4] = Metabolic stability in human liver microsomes assessed as half life; format: ADME, Microsome
[5] = target: Phosphatidylinositol 4,5-bisphosphate 3-kinase catalytic subunit gamma isoform (Homo sapiens, UniProt P48736); test: Inhibition of human PI3Kgamma by fluorescence polarization format assay
cells = settings: Homo sapiens, MDA-MB-361, 4 h
[6] = Solubility at pH 3; format: physicochemical; settings: buffer
[7] = target: Phosphatidylinositol 4,5-bisphosphate 3-kinase catalytic subunit alpha isoform (Homo sapiens, UniProt P42336)
Mus musculus [8] = test: Antitumor activity against human MDA-MB-361 cells implanted in mouse assessed as suppression of Akt S473 phosphorylation at 50 mg/kg, iv; format: functional, organism-based; design: dose 50 mg/kg
Mus musculus [9] = test: Antitumor activity against human MDA-MB-361 cells implanted in mouse assessed as suppression of Akt T308 phosphorylation at 50 mg/kg, iv; format: functional, organism-based; design: dose 50 mg/kg
Mus musculus [10] = test: Antitumor activity against human MDA-MB-361 cells implanted in mouse assessed as suppression of S6 phosphorylation at 50 mg/kg, iv; format: functional, organism-based; design: dose 50 mg/kg
[11] = Drug level in human MDA-MB-361 cells implanted mouse tumor at 50 mg/kg, iv; format: ADME, organism-based, Neoplasm; design: dose 50 mg/kg, route intravenous; settings: in vivo
Mus musculus [12] = test: Plasma concentration in human MDA-MB-361 cells implanted mouse at 50 mg/kg, iv; format: ADME, organism-based; design: dose 50 mg/kg, route intravenous; settings: in vivo
Mus musculus [13] = test: Antitumor activity against human MDA-MB-361 cells implanted in mouse assessed as suppression of P70S6K phosphorylation at 50 mg/kg, iv; format: functional, organism-based; design: dose 50 mg/kg

Sequence of Phosphatidylinositol 4,5-bisphosphate 3-kinase catalytic subunit gamma isoform (P48736 whole entry, canonical isoform): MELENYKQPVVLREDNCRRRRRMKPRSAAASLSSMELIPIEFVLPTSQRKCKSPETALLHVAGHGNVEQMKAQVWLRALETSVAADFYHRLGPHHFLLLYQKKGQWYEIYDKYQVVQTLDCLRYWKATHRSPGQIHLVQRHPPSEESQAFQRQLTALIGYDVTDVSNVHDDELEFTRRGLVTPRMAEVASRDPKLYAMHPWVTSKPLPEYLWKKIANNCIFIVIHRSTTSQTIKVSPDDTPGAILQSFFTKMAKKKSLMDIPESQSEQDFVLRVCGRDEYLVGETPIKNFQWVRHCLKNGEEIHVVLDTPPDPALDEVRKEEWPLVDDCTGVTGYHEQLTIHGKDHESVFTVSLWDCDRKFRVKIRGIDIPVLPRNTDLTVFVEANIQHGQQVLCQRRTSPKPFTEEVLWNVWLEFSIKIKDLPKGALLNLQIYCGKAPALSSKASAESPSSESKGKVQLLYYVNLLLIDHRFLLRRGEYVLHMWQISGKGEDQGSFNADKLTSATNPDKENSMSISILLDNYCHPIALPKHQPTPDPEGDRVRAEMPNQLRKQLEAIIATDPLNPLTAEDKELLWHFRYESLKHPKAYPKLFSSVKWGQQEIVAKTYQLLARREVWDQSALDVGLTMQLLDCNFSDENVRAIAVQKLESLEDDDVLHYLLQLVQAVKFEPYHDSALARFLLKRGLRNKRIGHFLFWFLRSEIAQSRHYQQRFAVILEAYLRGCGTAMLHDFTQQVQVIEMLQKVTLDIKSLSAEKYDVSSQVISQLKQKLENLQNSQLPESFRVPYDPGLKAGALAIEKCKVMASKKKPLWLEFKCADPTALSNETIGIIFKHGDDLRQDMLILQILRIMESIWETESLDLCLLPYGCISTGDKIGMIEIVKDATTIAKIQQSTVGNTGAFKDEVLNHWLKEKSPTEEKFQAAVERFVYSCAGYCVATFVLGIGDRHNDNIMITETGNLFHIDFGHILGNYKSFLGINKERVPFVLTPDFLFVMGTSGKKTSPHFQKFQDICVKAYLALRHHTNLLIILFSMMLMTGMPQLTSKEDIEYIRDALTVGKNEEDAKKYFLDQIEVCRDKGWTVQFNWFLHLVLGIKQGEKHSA
Sequence of Phosphatidylinositol 4,5-bisphosphate 3-kinase catalytic subunit alpha isoform (P42336 whole entry, canonical isoform): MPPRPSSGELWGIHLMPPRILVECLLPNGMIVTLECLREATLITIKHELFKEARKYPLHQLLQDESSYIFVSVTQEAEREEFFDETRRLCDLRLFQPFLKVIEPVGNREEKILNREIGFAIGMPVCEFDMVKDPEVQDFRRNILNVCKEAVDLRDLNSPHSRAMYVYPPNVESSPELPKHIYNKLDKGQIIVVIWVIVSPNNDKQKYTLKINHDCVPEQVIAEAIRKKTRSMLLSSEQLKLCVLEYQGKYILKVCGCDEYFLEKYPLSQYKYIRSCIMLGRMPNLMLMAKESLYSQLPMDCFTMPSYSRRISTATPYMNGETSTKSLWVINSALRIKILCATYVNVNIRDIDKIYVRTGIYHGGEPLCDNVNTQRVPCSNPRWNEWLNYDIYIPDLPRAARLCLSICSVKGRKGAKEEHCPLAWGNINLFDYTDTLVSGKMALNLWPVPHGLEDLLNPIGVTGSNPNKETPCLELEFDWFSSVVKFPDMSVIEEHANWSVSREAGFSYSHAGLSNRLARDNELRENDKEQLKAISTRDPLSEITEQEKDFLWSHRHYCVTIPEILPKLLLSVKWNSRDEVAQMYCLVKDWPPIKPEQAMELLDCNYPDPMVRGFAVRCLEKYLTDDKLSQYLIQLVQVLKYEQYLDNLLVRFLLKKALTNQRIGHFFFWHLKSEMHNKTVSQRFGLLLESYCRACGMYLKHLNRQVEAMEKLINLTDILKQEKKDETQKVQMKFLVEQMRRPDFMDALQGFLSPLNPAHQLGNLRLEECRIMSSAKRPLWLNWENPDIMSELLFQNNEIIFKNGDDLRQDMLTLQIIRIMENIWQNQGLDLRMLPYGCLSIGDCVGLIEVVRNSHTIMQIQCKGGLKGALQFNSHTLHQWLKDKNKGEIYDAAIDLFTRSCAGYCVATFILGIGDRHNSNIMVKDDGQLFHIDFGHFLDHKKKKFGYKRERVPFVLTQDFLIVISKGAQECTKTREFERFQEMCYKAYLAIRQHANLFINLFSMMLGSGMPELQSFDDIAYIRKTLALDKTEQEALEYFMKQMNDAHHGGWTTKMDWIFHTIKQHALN

SMILES | IC50 [1] [µM] | half-life (in vitro; liver microsomes) [min] | IC50 (MDA-MB-361) [µM] | IC50 (PC-3) [µM] | solubility [2] [µg/mL] | IC50 [7] [µM] | further results
O=C(Nc1ccncc1)Nc1ccc(-c2nc(N3CCOCC3)c3nnn(C4CC4)c3n2)cc1 | 0.00084 | 21 | 0.031 | 0.07 |  |  | 
CCn1nnc2c(N3CCOCC3)nc(-c3ccc(NC(=O)Nc4cccs4)cc3)nc21 | 0.003 | 10 | 0.081 | 0.133 | 1 (≈ 2.22 µM) |  | 
Cn1nnc2c(N3CCOCC3)nc(-c3ccc(NC(=O)Nc4cccnc4)cc3)nc21 | 0.00295 |  | 0.198 | 0.281 | 1 (≈ 2.32 µM) |  | half-life (in vitro; microsomes): 12 min
CCn1nnc2c(N3CCOCC3)nc(-c3ccc(NC(=O)Nc4ccc(C(=O)NCCc5ccccn5)cc4)cc3)nc21 | 0.00121 | 23 | 0.036 | 0.088 | 1 (≈ 1.69 µM) | 0.0068 | half-life [3]: 19 min; half-life [4]: 16 min; IC50 [5]: 0.022 µM; IC50 (cells): 0.065 µM; solubility [6]: 4 µg/mL (≈ 6.75 µM)
CCn1nnc2c(N3CCOCC3)nc(-c3ccc(NC(=O)Nc4ccc(C(=O)NCCN5CCN(C)CC5)cc4)cc3)nc21 | 0.0011 | 17 | 0.024 | 0.067 | 1 (≈ 1.63 µM) | 0.0032 | half-life [3]: 28 min; IC50 (cells): 0.074 µM; solubility [6]: 100 µg/mL (≈ 163 µM)
OCc1cccc(-c2nc(N3CCOCC3)c3nnn(C4CCN(Cc5ccccc5)CC4)c3n2)c1 | 0.25 |  |  | 0.393 |  |  | 
O=C(Nc1ccc(-c2nc(N3CCOCC3)c3nnn(C4CC4)c3n2)cc1)Nc1cccs1 | 0.00305 | 15 | 0.073 | 0.149 |  |  | 
CCn1nnc2c(N3CCOCC3)nc(-c3ccc(NC(=O)Nc4ccc(C(=O)N(C)C)cc4)cc3)nc21 | 0.00075 | 14 | 0.016 | 0.017 | 1 (≈ 1.94 µM) | 0.0014 | half-life [4]: > 30 min; IC50 (cells): 0.008 µM
CCn1nnc2c(N3CCOCC3)nc(-c3ccc(NC(=O)Nc4ccncc4)cc3)nc21 | 0.00063 | 27 | 0.035 | 0.049 | 18 (≈ 40.4 µM) | 0.005 | 
OCc1cccc(-c2nc(N3CCOCC3)c3ncn(C4CCN(Cc5ccccc5)CC4)c3n2)c1 | 0.634 |  |  |  |  |  | 
CCCCNC(=O)c1ccc(NC(=O)Nc2ccc(-c3nc(N4CCOCC4)c4nnn(CC)c4n3)cc2)cc1 | 0.0027 | 21 | 0.068 | 0.096 |  |  | half-life [3]: 27 min; half-life [4]: > 30 min; IC50 (cells): 0.047 µM
CCn1nnc2c(N3CCOCC3)nc(-c3ccc(NC(=O)Nc4ccnc(C)c4)cc3)nc21 | 0.021 | 11 | 0.196 | 0.252 | 3 (≈ 6.53 µM) |  | 
Cn1nnc2c(N3CCOCC3)nc(-c3ccc(NC(=O)Nc4cccs4)cc3)nc21 | 0.0037 | 9 | 0.184 | 0.366 | 2 (≈ 4.58 µM) |  | 
CCn1nnc2c(N3CCOCC3)nc(-c3ccc(NC(=O)Nc4ccc(C(=O)OC)cc4)cc3)nc21 | 0.00255 | 15 | 0.199 | 0.285 |  |  | 
CCn1nnc2c(N3CCOCC3)nc(-c3ccc(NC(=O)Nc4ccc(C(=O)NCCCN(C)C)cc4)cc3)nc21 | 0.0022 | 26 | 0.041 | 0.116 | 100 (≈ 175 µM) | 0.0024 | half-life [3]: 26 min; half-life [4]: 30 min; IC50 (cells): 0.044 µM; solubility [6]: 100 µg/mL (≈ 175 µM)
CCn1nnc2c(N3CCOCC3)nc(-c3ccc(NC(=O)Nc4cccnc4)cc3)nc21 | 0.00089 |  |  |  |  |  | 
CC(C)n1nnc2c(N3CCOCC3)nc(-c3ccc(NC(=O)Nc4ccc(N(C)C)cc4)cc3)nc21 | 0.0016 | 7 | 0.084 | 0.171 |  |  | 

Compounds with a lower IC50 [1], results first:

IC50 [1] [µM] | half-life (in vitro; liver microsomes) [min] | IC50 (MDA-MB-361) [µM] | IC50 (PC-3) [µM] | solubility [2] [µg/mL] | IC50 [7] [µM] | SMILES | further results
0.00035 | 25 | 0.047 | 0.11 | 1 (≈ 1.84 µM) |  | CC(C)n1nnc2c(N3CCOCC3)nc(-c3ccc(NC(=O)Nc4ccc(N5CCOCC5)cc4)cc3)nc21 | 
0.00031 | 9 | 0.038 | 0.057 |  | 0.0036 | CC(C)n1nnc2c(N3CCOCC3)nc(-c3ccc(NC(=O)Nc4ccc(C(N)=O)cc4)cc3)nc21 | 
0.00051 | > 30 | 0.054 | 0.067 |  |  | CC(C)n1nnc2c(N3CCOCC3)nc(-c3ccc(NC(=O)Nc4ccncc4)cc3)nc21 | 
0.00039 |  | 0.028 | 0.065 | 6 (≈ 12.3 µM) | 0.0024 | CCn1nnc2c(N3CCOCC3)nc(-c3ccc(NC(=O)Nc4ccc(C(N)=O)cc4)cc3)nc21 | IC50 [5]: 0.0122 µM; half-life (in vitro; microsomes): 21 min
0.00056 |  | 0.029 | 0.033 | 1 (≈ 1.94 µM) | 0.003 | CCNC(=O)c1ccc(NC(=O)Nc2ccc(-c3nc(N4CCOCC4)c4nnn(CC)c4n3)cc2)cc1 | half-life [3]: 29 min; half-life [4]: > 30 min; IC50 [5]: 0.0172 µM; half-life (in vitro; microsomes): 16 min; IC50 (cells): 0.027 µM
0.0005 |  | 0.013 | 0.052 | > 100 |  | CCn1nnc2c(N3CCOCC3)nc(-c3ccc(NC(=O)Nc4ccc(C(=O)NCCN(C)C)cc4)cc3)nc21 | Activity (Mus musculus [8]): Active; half-life [3]: 28 min; Activity (Mus musculus [9]): Active; half-life [4]: > 30 min; IC50 [5]: 0.012 µM; Activity (Mus musculus [10]): Active; half-life (in vitro; microsomes): 29 min; IC50 (cells): 0.016 µM; Drug uptake [11]: 2130 ng/mL; solubility [6]: > 100 µg/mL; Cp (Mus musculus [12]): 1229 ng/mL; Activity (Mus musculus [13]): Active
0.00057 | 24 | 0.039 | 0.091 | 1 (≈ 2.18 µM) |  | CC(C)n1nnc2c(N3CCOCC3)nc(-c3ccc(NC(=O)Nc4cccnc4)cc3)nc21 | 
0.00057 | 24 | 0.067 | 0.09 | 1 (≈ 2.19 µM) | 0.0105 | O=C(Nc1ccc(-c2nc(N3CCOCC3)c3nnn(C4CC4)c3n2)cc1)Nc1cccnc1 | IC50 [5]: 0.0485 µM
